Tested on: SARS-CoV-2
Assay: Antiviral activity against SARS-CoV-2 nCoV-2019BetaCoV/Wuhan/WIV04/2019 infected in African green monkey Vero E6 cells assessed as viral growth inhibition pretreated for 1 hr followed by infection at MOI of 0.01 and replacement of fresh medium containing compound measured after 24 hrs by plaque reduction assay
Type: functional, organism-based
Settings: Severe acute respiratory syndrome coronavirus 2, nCoV-2019BetaCoV/Wuhan/WIV04/2019, Vero C1008

| Structure (SMILES) | EC50 [nM] |
| --- | --- |
| COCC[n+]1c2c(n(Cc3cnccn3)c1C)C(=O)c1ccccc1C2=O [SEPANTRONIUM BROMIDE] | 170 |
| C[C@H]1COC2=C1C(=O)C(=O)c1c2ccc2c1CCCC2(C)C [CRYPTOTANSHINONE] | 700 |
| Cc1coc2c1C(=O)C(=O)c1c-2ccc2c(C)cccc12 [TANSHINONE I] | 2260 |

Source: ChEMBL document CHEMBL5137028, “Progress and Challenges in Targeting the SARS-CoV-2 Papain-like Protease” (J Med Chem, 2022)
